Our source for the Dmax and DC50 values is patent publication US11986532B2 (Arvinas Operations, Inc., priority 2021, dated 2024).

The target of this test is T1, BCL6 (Homo sapiens, UniProt P41182).
T1 construct: endogenous in cells; host or cells: T47D breast cancer epithelial cells
Description: Immunofluorescence protocol for high content imaging of BCL6 (degradation) in T47D cells, 3 days compound treatment. The settings on record: for Dmax: read-out: Mean Dmax (%)** category; for DC50: read-out: Mean DC50 (nM)* category. Type of test: cell-based. In short, it runs like this:
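For degradation, compound series (3-fold, 11 points, top 0.1 or 1 μM final) were added to adherent T47D cultures for 3 days. BCL6 immunostaining used a rabbit antibody at 1:300 and an Alexa-488 secondary, with imaging at 10× magnification.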

[1] abbreviates: T47D cells, 3 days compound treatment.

Structures are written as SMILES. Like-named read-outs stand apart in the source and are kept apart here. A value given as a limit tells only on which side of the number the result lay.

Broadly, the Dmax is the greatest extent of degradation seen. As a reminder, the DC50 is the concentration at which degradation of the target reaches its halfway point. Consider `CNC(=O)COc1cc2cc(Nc3nc(N4CCC(CN5CCN(c6ccc7c(c6F)CN(C6CCC(=O)NC6=O)C7=O)CC5)CC4)ncc3Cl)ccc2n(C(C)C)c1=O` (stereo not shown) [Compound 322, 2-{[6-({5-chloro-2-[4-({4-[2-(2,6-dioxopiperidin-3-yl)-4-fluoro-1-oxo-2,3-dihydro-1H-isoindol-5-yl]piperazin-1-yl}methyl)piperidin-1-yl]pyrimidin-4-yl}amino)-2-oxo-1-(propan-2-yl)-1,2-dihydroquinolin-3-yl]oxy}-N-methylacetamide], for which the 50% degradation concentration (DC50) is less than 10 nM. Further, where the note is “T47D”, the Dmax was in the range of 50 to 70%.

In the case of `CNC(=O)COc1cc2cc(Nc3nc(N4CCC(O[C@H]5C[C@H](N6CCN(c7ccc8c(c7F)CN([C@@H]7CCC(=O)NC7=O)C8=O)[C@H](C)C6)C5)CC4)ncc3Cl)ccc2n(C(C)C)c1=O` [Compound 395, 2-({6-[(5-chloro-2-{4-[(1r,3r)-3-[(3R)-4-{2-[(3R)-2,6-dioxopiperidin-3-yl]-4-fluoro-1-oxo-2,3-dihydro-1H-isoindol-5-yl}-3-methylpiperazin-1-yl]cyclobutoxy]piperidin-1-yl}pyrimidin-4-yl)amino]-2-oxo-1-(propan-2-yl)-1,2-dihydroquinolin-3-yl}oxy)-N-methylacetamide], the DC50 was less than 10 nM. Besides, the Dmax (T47D) is not below 70%.

As to `CNC(=O)COc1cc2cc(Nc3nc(N4CCC(CN5CC[C@]6(CCN(c7ccc8c(c7)CN([C@@H]7CCC(=O)NC7=O)C8=O)C6)C5)CC4)ncc3Cl)ccc2n(C(C)C)c1=O` [Compound 2, 2-[(6-{[5-chloro-2-(4-{[(5S)-7-{2-[(3R)-2,6-dioxopiperidin-3-yl]-1-oxo-2,3-dihydro-1H-isoindol-5-yl}-2,7-diazaspiro[4.4]nonan-2-yl]methyl}piperidin-1-yl)pyrimidin-4-yl]amino}-2-oxo-1-(propan-2-yl)-1,2-dihydroquinolin-3-yl)oxy]-N-methylacetamide], under setting [1], the DC50 was less than 10 nM and the Dmax was not below 70%.

In the case of `CNC(=O)COc1cc2cc(Nc3nc(N4CCN(CC5CCN(c6cc7c(cc6F)C(=O)N(C6CCC(=O)NC6=O)C7)CC5)CC4)ncc3Cl)ccc2n(C(C)C)c1=O` (stereo not shown) [Compound 15, 2-{[6-({5-chloro-2-[4-({1-[2-(2,6-dioxopiperidin-3-yl)-6-fluoro-1-oxo-2,3-dihydro-1H-isoindol-5-yl]piperidin-4-yl}methyl)piperazin-1-yl]pyrimidin-4-yl}amino)-2-oxo-1-(propan-2-yl)-1,2-dihydroquinolin-3-yl]oxy}-N-methylacetamide], under setting [1], the DC50 is less than 10 nM and the greatest degradation seen (Dmax) fell in the range of 50 to 70%.

In the case of `CNC(=O)COc1cc2cc(Nc3nc(N4CCC(CN5CCC6(CC5)CN(c5ccc7c(c5)C(=O)N(C5CCC(=O)NC5=O)C7=O)C6)CC4)ncc3Cl)ccc2n(CCOC)c1=O` (stereo not shown) [Compound 37, 2-{[6-({5-chloro-2-[4-({2-[2-(2,6-dioxopiperidin-3-yl)-1,3-dioxo-2,3-dihydro-1H-isoindol-5-yl]-2,7-diazaspiro[3.5]nonan-7-yl}methyl)piperidin-1-yl]pyrimidin-4-yl}amino)-1-(2-methoxyethyl)-2-oxo-1,2-dihydroquinolin-3-yl]oxy}-N-methylacetamide], under setting [1], the DC50 was less than 10 nM and the Dmax was in the range of 50 to 70%.

With `CNC(=O)COc1cc2cc(Nc3nc(N4CCC(O[C@H]5C[C@H](N6CCC7(c8ccc9c(c8F)CN(C8CCC(=O)NC8=O)C9=O)CC7C6)C5)CC4)ncc3Cl)ccc2n(C(C)C)c1=O` (stereo partly shown) [Compound 283, 2-({6-[(5-chloro-2-{4-[(1r,3r)-3-{6-[2-(2,6-dioxopiperidin-3-yl)-4-fluoro-1-oxo-2,3-dihydro-1H-isoindol-5-yl]-3-azabicyclo[4.1.0]heptan-3-yl}cyclobutoxy]piperidin-1-yl}pyrimidin-4-yl)amino]-2-oxo-1-(propan-2-yl)-1,2-dihydroquinolin-3-yl}oxy)-N-methylacetamide], the DC50 was less than 10 nM. Besides, the Dmax (T47D) was not below 70%.

Turning to `CNC(=O)COc1cc2cc(Nc3nc(N4CCC(CN5CCC6(CC5)CN(c5ccc7c(c5)C(=O)N(C5CCC(=O)NC5=O)C7=O)C6)CC4)ncc3F)ccc2n(C(C)C)c1=O` (stereo not shown) [Compound 57, 2-{[6-({2-[4-({2-[2-(2,6-dioxopiperidin-3-yl)-1,3-dioxo-2,3-dihydro-1H-isoindol-5-yl]-2,7-diazaspiro[3.5]nonan-7-yl}methyl)piperidin-1-yl]-5-fluoropyrimidin-4-yl}amino)-2-oxo-1-(propan-2-yl)-1,2-dihydroquinolin-3-yl]oxy}-N-methylacetamide], under setting [1], the DC50 was in the range of 10 to 50 nM and the Dmax was in the range of 50 to 70%.

In the case of `CNC(=O)COc1cc2cc(Nc3nc(N4CCC(O[C@H]5CC[C@H](Oc6cccc7c6C(=O)N(C6CCC(=O)NC6=O)C7=O)CC5)CC4)ncc3Cl)ccc2n(C(C)C)c1=O` (stereo partly shown) [Compound 31, 2-[(6-{[5-chloro-2-(4-{[(1r,4r)-4-{[2-(2,6-dioxopiperidin-3-yl)-1,3-dioxo-2,3-dihydro-1H-isoindol-4-yl]oxy}cyclohexyl]oxy}piperidin-1-yl)pyrimidin-4-yl]amino}-2-oxo-1-(propan-2-yl)-1,2-dihydroquinolin-3-yl)oxy]-N-methylacetamide], under setting [1], the DC50 was less than 10 nM and the Dmax lay within 50 to 70%.

As for `CNC(=O)COc1cc2cc(Nc3nc(N4CCC(O[C@H]5C[C@H](N6CCC(c7ccc8c(c7C)CN(C7CCC(=O)NC7=O)C8=O)CC6)C5)CC4)ncc3Cl)ccc2n(C(C)C)c1=O` (stereo partly shown) [Compound 197], under setting [1], the DC50 is less than 10 nM and the Dmax was not below 70%.

Consider `CNC(=O)COc1cc2cc(Nc3nc(N4CCOC5(CN(CCC6CCN(c7ccc8c(c7)C(=O)N(C7CCC(=O)NC7=O)C8=O)CC6)C5)C4)ncc3Cl)ccc2n(C(C)C)c1=O` (stereo not shown) [Compound 145, 2-{[6-({5-chloro-2-[2-(2-{1-[2-(2,6-dioxopiperidin-3-yl)-1,3-dioxo-2,3-dihydro-1H-isoindol-5-yl]piperidin-4-yl}ethyl)-5-oxa-2,8-diazaspiro[3.5]nonan-8-yl]pyrimidin-4-yl}amino)-2-oxo-1-(propan-2-yl)-1,2-dihydroquinolin-3-yl]oxy}-N-methylacetamide], for which the DC50 under setting [1] is less than 10 nM.

For `CNC(=O)COc1cc2cc(Nc3nc(N4CCC(CN5CCC6(CN(c7ccc8c(c7F)CN(C7CCC(=O)NC7=O)C8=O)C6)C(F)(F)C5)CC4)ncc3Cl)ccc2n(C(C)C)c1=O` (stereo not shown) [Compound 332, 2-{[6-({5-chloro-2-[4-({2-[2-(2,6-dioxopiperidin-3-yl)-4-fluoro-1-oxo-2,3-dihydro-1H-isoindol-5-yl]-5,5-difluoro-2,7-diazaspiro[3.5]nonan-7-yl}methyl)piperidin-1-yl]pyrimidin-4-yl}amino)-2-oxo-1-(propan-2-yl)-1,2-dihydroquinolin-3-yl]oxy}-N-methylacetamide], the DC50 is less than 10 nM. Besides, under “T47D”, the Dmax is not below 70%.

`CNC(=O)COc1cc2cc(Nc3nc(N4CCCCC4)ncc3Cl)ccc2n(CCOc2ccc3c(c2)C(=O)N(C2CCC(=O)NC2=O)C3=O)c1=O` (stereo not shown) [Compound 29, 2-[(6-{[5-chloro-2-(piperidin-1-yl)pyrimidin-4-yl]amino}-1-(2-{[2-(2,6-dioxopiperidin-3-yl)-1,3-dioxo-2,3-dihydro-1H-isoindol-5-yl]oxy}ethyl)-2-oxo-1,2-dihydroquinolin-3-yl)oxy]-N-methylacetamide]: under setting [1], the DC50 lay within 10 to 50 nM and the Dmax lay in the range of 50 to 70%.

On to `CNC(=O)COc1cc2cc(Nc3nc(N4CCC(O[C@H]5C[C@H](N6CC7(CCN7c7cccc8c7CN(C7CCC(=O)NC7=O)C8=O)C6)C5)CC4)ncc3Cl)ccc2n(C(C)C)c1=O` (stereo partly shown) [Compound 317, 2-({6-[(5-chloro-2-{4-[(1r,3r)-3-{1-[2-(2,6-dioxopiperidin-3-yl)-1-oxo-2,3-dihydro-1H-isoindol-4-yl]-1,6-diazaspiro[3.3]heptan-6-yl}cyclobutoxy]piperidin-1-yl}pyrimidin-4-yl)amino]-2-oxo-1-(propan-2-yl)-1,2-dihydroquinolin-3-yl}oxy)-N-methylacetamide], for which the DC50 is less than 10 nM. The Dmax (T47D) lay within 50 to 70%.

For `CNC(=O)COc1cc2cc(Nc3cc(N4CCC(O[C@H]5C[C@H](N6CCC(c7ccc8c(c7F)CN(C7CCC(=O)NC7=O)C8=O)CC6)C5)CC4)ncc3Cl)ccc2n(C(C)C)c1=O` (stereo partly shown) [Compound 258, 2-({6-[(5-chloro-2-{4-[(1r,3r)-3-{4-[2-(2,6-dioxopiperidin-3-yl)-4-fluoro-1-oxo-2,3-dihydro-1H-isoindol-5-yl]piperidin-1-yl}cyclobutoxy]piperidin-1-yl}pyridin-4-yl)amino]-2-oxo-1-(propan-2-yl)-1,2-dihydroquinolin-3-yl}oxy)-N-methylacetamide], the DC50 was less than 10 nM. In addition, the Dmax (T47D) lay in the range of 50 to 70%.

For `CNC(=O)COc1cc2cc(Nc3cc(N4CCC(CN5CCC6(CC5)CN(c5ccc7c(c5)CN(C5CCC(=O)NC5=O)C7=O)C6(C)C)CC4)ncc3Cl)ccc2n(C(C)C)c1=O` (stereo not shown) [Compound 233, 2-{[6-({5-chloro-2-[4-({2-[2-(2,6-dioxopiperidin-3-yl)-1-oxo-2,3-dihydro-1H-isoindol-5-yl]-1,1-dimethyl-2,7-diazaspiro[3.5]nonan-7-yl}methyl)piperidin-1-yl]pyridin-4-yl}amino)-2-oxo-1-(propan-2-yl)-1,2-dihydroquinolin-3-yl]oxy}-N-methylacetamide], the DC50 is less than 10 nM. Further, for the setting “T47D”, the Dmax was in the range of 50 to 70%.

Take `CNC(=O)COc1cc2cc(Nc3nc(N4CCC(CN5CCC6(CCN(c7ccc8c(c7)CN(C7CCC(=O)NC7=O)C8=O)C6=O)C5)CC4)ncc3Cl)ccc2n(C(C)C)c1=O` (stereo not shown) [Compound 48, 2-{[6-({5-chloro-2-[4-({7-[2-(2,6-dioxopiperidin-3-yl)-1-oxo-2,3-dihydro-1H-isoindol-5-yl]-6-oxo-2,7-diazaspiro[4.4]nonan-2-yl}methyl)piperidin-1-yl]pyrimidin-4-yl}amino)-2-oxo-1-(propan-2-yl)-1,2-dihydroquinolin-3-yl]oxy}-N-methylacetamide]: under setting [1], the DC50 was less than 10 nM and the Dmax is 50 to 70%.
